The structures appear in SMILES notation. Some results are limits rather than exact numbers.

In one assay the target is T1, AtDEF2 (Arabidopsis thaliana, UniProt Q9FUZ2).
T1 construct: the entire putative protein and the ChloroP-predicted chloroplast-length protein; initiator Met from the NdeI site (N); made in house; host or cells: E. coli BL21(DE3)pLysS, pET23b, clone #4-D
T1 sequence (Q9FUZ2 57-273): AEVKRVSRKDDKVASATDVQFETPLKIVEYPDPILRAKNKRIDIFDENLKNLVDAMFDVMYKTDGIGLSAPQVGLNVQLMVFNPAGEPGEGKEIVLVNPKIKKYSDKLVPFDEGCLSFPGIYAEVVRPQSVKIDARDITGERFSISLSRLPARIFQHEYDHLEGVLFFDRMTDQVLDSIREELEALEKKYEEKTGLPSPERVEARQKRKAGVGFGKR
Put plainly: Continuous spectrophotometric peptide deformylase activity and inhibition assay (formyl-Met-Leu-p-nitroanilide, coupled with Aeromonas proteolytica aminopeptidase). The class given is biochemical. The protocol:
Experiments were designed to detect deformylase activity from recombinant AtDEF2 using the assay as described by Wei and Pei, Analytical Biochemistry 250:29-34 (1997). Continuous spectrophotometric assays of peptide deformylase activity were carried out at a temperature of 20° C. Assays were performed in polystyrene or quartz cuvettes containing 50 mM Tris-HCl, pH 8.2, 1 mM ethylene diamine bis(β-aminoethyl ether-N,N′-tetraacetic acid ([…]), 5 mM MgCl2, 200 μM NiSO4 0-200 μM peptide substrate and 1.0 units of Aeromonas proteolytica aminopeptidase. […] The reactions were monitored continuously at 405 nm in a Shimadzu UV-201 PC scanning spectrophotometer, and the initial rates were calculated from the early part of the reaction progression curves (<60 s). Spectrophotometric detection and quantitation was performed of p-nitroaniline released from formyl-Met-Leu-p-nitroanilide substrate (BACHEM Cat. No. L2030; King of Prussia, Pa. 19406 USA) following sequential action of AtDEF2 and Aeromonas proteolytica aminopeptidase (Sigma Cat. No. A8200; St. Louis, Mo., 63118 USA).

Assay [1] has as its system Pea plants (Pisum sativum L. cv. Laxton's Progress No. 9). Put plainly: Assay for in vivo herbicidal activity on pea plants. The following applies: ten-day old pea plants. As to the method: Pea plants (Pisum sativum L. cv. Laxton's Progress No. 9) were sown in 46×62 cm flats of MetroMix 360 and grown for 10-12 days in a greenhouse (minimum night temperature of 30° C.) as described by Wang, P., Royer, M., and Houtz, R. L. Affinity purification of ribulose-1,5-bisphosphate carboxylase/oxygenase large subunit epsilon N-methyltransferase. Protein Expression and Purification 6:528-526 (1995). Ten-day old pea plants were treated with approximately 100-200 μl actinonin (final concentration. 2.5 mg/ml per plant in 0.1% Tween-20). Control plants were treated with 0.1% Tween-20. […] The changes were clearly visible within 48 hours after treatment with actinonin.

In the case of `CCCCC[C@H](CC(=O)NO)C(=O)N[C@H](C(=O)N1CCC[C@H]1CO)C(C)C` [actinonin], at AtDEF2 (43.5 μg AtDEF2 preincubated 3 minutes with 3.2 μM actinonin, assay then initiated with substrate), the “inhibition of deformylase activity after preincubation” value is recorded as “Nearly complete inhibition”. The “inhibition of AtDEF2 activity (actinonin included in assay, no preincubation)” value against AtDEF2 (within 60 seconds, FIG. 8, 20° C.) is “significantly inhibited”. Also, the “time after treatment at which changes were clearly visible” value in assay [1] (2.5 mg/ml actinonin in 0.1% Tween-20) is no more than 48 h. In addition, the “observable alterations in plant growth” value in assay [1] (approximately 100-200 μl actinonin, 2.5 mg/ml per plant in 0.1% Tween-20, foliar application) was “stunting and yellowing of pea plants”.

Values taken from patent publication US7745693B2, “Inhibitors of plant peptide deformylase for use as broad-spectrum herbicides and methods for identifying the same” (University of Kentucky Research Foundation, priority 2007, dated 2010).
